Experimental data as given in patent publication EP1247803A2, “Indolinone compounds suitable for modulation of protein kinases” (Sugen, Inc., priority 1996, dated 1998).

Key:
MET = MET biochemical kinase assay; set-up: species or system human; concentration or dose not given beside the values
How it was run: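 Human MET was captured from cell lysates onto ELISA plates via goat anti-rabbit Fc and rabbit polyclonal antibody to the MET cytoplasmic domain. After washing, test compounds and kinase buffer with ATP and divalent metal ions were added. Phosphotyrosine was detected with HRP-conjugated anti-phosphotyrosine antibody and TMB colorimetric read-out.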

PDGF-R = PDGF-R (Homo sapiens, UniProt P09619); experiment: PDGF-R ELISA; assay type: cell-based
Source text: A PDGF-R ELISA is described in International Patent Publication No. WO 96/40116, published December 19, 1996 by Tang et al.

EGFR = biological target: T1, EGFR (Homo sapiens, UniProt P00533); experiment: EGFR ELISA assay (in vitro kinase activity, EGFR captured from A431 cell lysate); assay type: biochemical; set-up: concentration or dose not given beside the values
T1 construct: Add 7 ug A431 cell lysate per well (EGFR source); endogenous in cells; host or cells: A431
How it was run: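 EGFR from A431 lysate was captured on plates coated with anti-EGFR antibody. Compounds were added 30 min before a 5 min phosphorylation with 3 µM ATP/5 mM MnCl2, which was stopped with 20 mM EDTA. Phosphotyrosine was detected with rabbit anti-phosphotyrosine, then a peroxidase-conjugated secondary and ABTS/H2O2, read at 410 nm.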

T1 sequence (P00533 25-1210): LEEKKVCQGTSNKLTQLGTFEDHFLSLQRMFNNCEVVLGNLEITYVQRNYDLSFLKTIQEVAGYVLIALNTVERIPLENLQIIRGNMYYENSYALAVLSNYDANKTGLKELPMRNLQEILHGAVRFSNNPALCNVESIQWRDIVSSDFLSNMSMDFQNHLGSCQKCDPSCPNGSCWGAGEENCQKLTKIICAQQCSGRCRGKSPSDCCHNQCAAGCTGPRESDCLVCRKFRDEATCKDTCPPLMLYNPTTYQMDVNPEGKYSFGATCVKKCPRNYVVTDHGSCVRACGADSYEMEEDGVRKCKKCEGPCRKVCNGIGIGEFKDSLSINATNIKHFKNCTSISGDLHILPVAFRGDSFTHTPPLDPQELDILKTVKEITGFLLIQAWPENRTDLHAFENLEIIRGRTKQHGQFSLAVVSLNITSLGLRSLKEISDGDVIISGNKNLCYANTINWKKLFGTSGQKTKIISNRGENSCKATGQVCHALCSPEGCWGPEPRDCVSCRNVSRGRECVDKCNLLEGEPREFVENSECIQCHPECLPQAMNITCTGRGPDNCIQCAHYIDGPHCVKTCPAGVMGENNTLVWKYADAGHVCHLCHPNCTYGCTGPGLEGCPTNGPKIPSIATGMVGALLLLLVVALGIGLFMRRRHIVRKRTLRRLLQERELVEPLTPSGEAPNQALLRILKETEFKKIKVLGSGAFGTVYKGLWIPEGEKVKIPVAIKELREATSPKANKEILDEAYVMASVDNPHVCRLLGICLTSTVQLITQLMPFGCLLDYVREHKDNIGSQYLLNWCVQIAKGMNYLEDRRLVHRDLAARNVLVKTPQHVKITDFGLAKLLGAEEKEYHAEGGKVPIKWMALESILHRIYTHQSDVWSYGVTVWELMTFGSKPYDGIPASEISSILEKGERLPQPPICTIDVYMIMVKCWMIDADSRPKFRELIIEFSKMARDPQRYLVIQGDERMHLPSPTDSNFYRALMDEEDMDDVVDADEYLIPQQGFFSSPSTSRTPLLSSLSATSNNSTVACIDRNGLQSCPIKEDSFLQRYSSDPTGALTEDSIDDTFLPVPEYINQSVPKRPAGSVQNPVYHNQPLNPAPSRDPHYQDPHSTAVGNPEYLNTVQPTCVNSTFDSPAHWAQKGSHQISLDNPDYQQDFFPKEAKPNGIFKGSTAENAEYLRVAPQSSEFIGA
Sequence of PDGF-R (P09619 33-1106, species assumed): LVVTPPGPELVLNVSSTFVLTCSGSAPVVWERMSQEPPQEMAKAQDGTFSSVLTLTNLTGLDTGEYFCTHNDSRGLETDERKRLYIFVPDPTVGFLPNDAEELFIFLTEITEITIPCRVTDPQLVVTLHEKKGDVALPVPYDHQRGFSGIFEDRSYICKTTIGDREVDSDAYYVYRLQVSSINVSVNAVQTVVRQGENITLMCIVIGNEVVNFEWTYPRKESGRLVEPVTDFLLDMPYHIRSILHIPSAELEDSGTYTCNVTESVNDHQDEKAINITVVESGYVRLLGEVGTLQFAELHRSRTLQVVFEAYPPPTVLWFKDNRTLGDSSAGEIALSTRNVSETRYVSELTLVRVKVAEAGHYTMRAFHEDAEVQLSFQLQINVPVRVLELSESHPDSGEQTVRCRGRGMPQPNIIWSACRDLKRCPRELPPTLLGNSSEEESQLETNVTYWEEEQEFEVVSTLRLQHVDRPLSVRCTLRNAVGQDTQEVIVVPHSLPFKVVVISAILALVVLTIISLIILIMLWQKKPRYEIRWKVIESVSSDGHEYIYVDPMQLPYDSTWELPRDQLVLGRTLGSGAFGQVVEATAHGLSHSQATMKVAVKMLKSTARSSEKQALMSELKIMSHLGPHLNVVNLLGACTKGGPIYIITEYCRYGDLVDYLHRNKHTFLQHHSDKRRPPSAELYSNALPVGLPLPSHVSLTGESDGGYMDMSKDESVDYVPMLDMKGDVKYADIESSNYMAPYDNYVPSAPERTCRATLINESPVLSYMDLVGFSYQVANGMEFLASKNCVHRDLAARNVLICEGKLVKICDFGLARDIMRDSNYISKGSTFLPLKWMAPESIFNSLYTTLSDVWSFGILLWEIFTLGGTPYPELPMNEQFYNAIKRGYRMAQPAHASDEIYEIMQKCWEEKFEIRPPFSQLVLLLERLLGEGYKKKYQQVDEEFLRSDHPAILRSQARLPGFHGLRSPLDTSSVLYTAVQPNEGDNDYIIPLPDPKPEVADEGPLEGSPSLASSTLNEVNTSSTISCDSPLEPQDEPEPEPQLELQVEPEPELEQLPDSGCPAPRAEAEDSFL

| SMILES | Met Kinase % Inhibition (MET) [%] | PDGF Kinase %Inhibition (PDGF-R) [%] | Biochem EGFR %Inhibition (EGFR) [%] |
| --- | --- | --- | --- |
| Cc1c(Br)ccc2c1C(=Cc1ccccc1Br)C(=O)N2 [10723/C07] | 44.3 | 27.6 | -4.0 |
| O=C1Nc2ccc(I)cc2C1=Cc1ccc(O)c(O)c1O [10723/B02] | 100.3 | 29.0 | 91.0 |
| O=C1Nc2c(Br)cc(Br)cc2C1=Cc1ccc(O)c(O)c1O [10723/A02] | 100.8 | 64.4 | 97.8 |
| Cc1c(Br)ccc2c1C(=Cc1ccc(O)cc1O)C(=O)N2 [10723/C08] | 83.0 | 29.0 | 45.0 |
| Cc1cc(C=C2C(=O)Nc3ccc(Br)c(C)c32)ccc1O [10723/C06] | 63.4 | 26.3 | -4.5 |
| Cc1cc(C=C2C(=O)Nc3ccc(CCCl)cc32)cc(C)c1O [10722/G07] | 41.2 | -3.7 | -32.5 |
| CNS(=O)(=O)c1ccc2c(c1)C(=Cc1ccc(O)c(C)c1)C(=O)N2 [10723/D06] | 60.0 | 6.2 | -7.4 |
| O=C1Nc2ccc(S(=O)(=O)N3CCOCC3)cc2C1=Cc1ccc(O)c(O)c1O [10723/F02] | 99.0 | 1.3 | 70.4 |
| CNS(=O)(=O)c1ccc2c(c1)C(=Cc1cc(O)c(O)c(Br)c1)C(=O)N2 [10723/D04] | 97.7 | 31.8 | 45.1 |
| Cc1cc(C=C2C(=O)Nc3ccc(S(=O)(=O)Nc4ccc(C(F)(F)F)cc4)cc32)ccc1O [10723/E06] | 74.4 | 18.6 | 11.5 |
| O=C1Nc2ccc(S(=O)(=O)Nc3ccc(C(F)(F)F)cc3)cc2C1=Cc1cc(O)c(O)c(Br)c1 [10723/E04] | 94.5 | 36.0 | 59.8 |
| O=C1Nc2ccc(CCCl)cc2C1=Cc1ccc(C(=O)O)cc1 [10722/G05] | 9.7 | -6.0 | -9.0 |
| O=C1Nc2ccc(S(=O)(=O)Nc3ccc(C(F)(F)F)cc3)cc2C1=Cc1ccc(O)cc1O [10723/E08] | 89.3 | 26.3 | 52.6 |
| CNS(=O)(=O)c1ccc2c(c1)C(=Cc1ccccc1Br)C(=O)N2 [10723/D07] | 21.9 | 16.6 | 13.4 |
| CC(C)(C)c1cc(C=C2C(=O)Nc3ccc(CCCl)cc32)cc([N+](=O)[O-])c1O [10722/G02] | 43.0 | 14.6 | 27.3 |
| CC(=O)Oc1ccc(C=C2C(=O)Nc3ccc(S(=O)(=O)N4CCOCC4)cc32)cc1OC(C)=O [10723/F05] | 45.6 | -7.7 | -3.8 |
| Cc1c(Br)ccc2c1C(=Cc1cc(C(C)(C)C)cc(C(C)(C)C)c1O)C(=O)N2 [10723/C11] | 47.0 | 8.9 | -1.1 |
| COc1cccc(C=C2C(=O)Nc3ccc(S(=O)(=O)N4CCOCC4)cc32)c1O [10723/F03] | 78.3 | 1.3 | 9.3 |
| CC(=O)Oc1ccc(C=C2C(=O)Nc3c(Br)cc(Br)cc32)cc1OC(C)=O [10723/A05] | 75.7 | 17.9 | 26.4 |

| SMILES | Met Kinase % Inhibition (MET) [%] | PDGF Kinase %Inhibition (PDGF-R) [%] | Biochem EGFR %Inhibition (EGFR) [%] |
| --- | --- | --- | --- |
| Cc1cc(C=C2C(=O)Nc3ccc(CCCl)cc32)ccc1O [10723/G06] | 64.5 | -0.8 | -26.7 |
| O=C1Nc2c(Br)cc(Br)cc2C1=Cc1cc(O)c(O)c(Br)c1 [10723/A04] | 97.9 | 13.1 | 30.8 |
| CNS(=O)(=O)c1ccc2c(c1)C(=Cc1ccc(O)c(O)c1O)C(=O)N2 [10723/D02] | 93.0 | 22.1 | 63.2 |
| COc1cccc(C=C2C(=O)Nc3c(Br)cc(Br)cc32)c1O [10723/A03] | 76.5 | 11.7 | 38.5 |
| CC(=O)Oc1ccc(C=C2C(=O)Nc3ccc(S(=O)(=O)Nc4ccc(C(F)(F)F)cc4)cc32)cc1OC(C)=O [10723/E05] | 63.7 | -4.9 | -15.6 |
| COc1cccc(C=C2C(=O)Nc3ccc(S(=O)(=O)Nc4ccc(C(F)(F)F)cc4)cc32)c1O [10723/E03] | 76.8 | 47.1 | 8.3 |
| CC(C)(C)c1cc(C=C2C(=O)Nc3ccc(CCCl)cc32)cc(Cl)c1O [10722/G08] | 66.1 | 12.9 | -8.5 |
| Cc1c(Br)ccc2c1C(=Cc1cccc(Br)c1)C(=O)N2 [10723/C10] | 43.8 | 25.6 | -7.2 |
| O=C1Nc2ccc(CCCl)cc2C1=Cc1ccc(C(F)(F)F)cc1 [10722/G11] | 35.3 | 0.3 | -39.4 |
| COc1ccc(C=C2C(=O)Nc3ccc(S(=O)(=O)Nc4ccc(C(F)(F)F)cc4)cc32)c(O)c1 [10723/E09] | 91.7 | 22.1 | 29.1 |
| O=C1Nc2ccc(S(=O)(=O)N3CCOCC3)cc2C1=Cc1cc(O)c(O)c(Br)c1 [10723/F04] | 94.0 | 21.4 | 17.5 |
| O=C1Nc2ccc(I)cc2C1=Cc1cc(O)c(O)c(Br)c1 [10723/B04] | 90.6 | 40.1 | 5.1 |
| O=C1Nc2c(Br)cc(Br)cc2C1=Cc1ccc(O)cc1O [10723/A08] | 77.3 | 29.7 | -2.1 |
| O=C1Nc2ccc(S(=O)(=O)Nc3ccc(C(F)(F)F)cc3)cc2C1=Cc1cccc(Br)c1 [10723/E10] | 59.5 | 44.3 | -7.9 |
| O=C1Nc2ccc(S(=O)(=O)Nc3ccc(C(F)(F)F)cc3)cc2C1=Cc1ccccc1Br [10723/E07] | 47.7 | 14.5 | 38.1 |
| COc1ccc(C=C2C(=O)Nc3ccc(Br)c(C)c32)c(O)c1 [10723/C09] | 84.6 | 62.3 | 62.7 |
| CNS(=O)(=O)c1ccc2c(c1)C(=Cc1ccc(OC)cc1O)C(=O)N2 [10723/D09] | 62.6 | 21.4 | -3.8 |
| Cc1c(Br)ccc2c1C(=Cc1cc(O)c(O)c(Br)c1)C(=O)N2 [10723/C04] | 91.9 | 36.7 | 23.5 |
| O=C1Nc2ccc(S(=O)(=O)Nc3ccc(C(F)(F)F)cc3)cc2C1=Cc1ccc(O)c(O)c1O [10723/E02] | 97.9 | 46.4 | 91.0 |
